Source: patent publication US20260091020A1, “TREATMENT OF ACUTE CANNABINOID OVERDOSE” (Anebulo Pharmaceuticals, Inc., priority 2022, published 2026)

Legend:
Type in all cases: cell-based
[1] = target: T1, CB2 [CNR2] (Homo sapiens, UniProt P34972); assay: PathHunter GPCR Biosensor cAMP assay, CNR2 agonist mode; conditions: Gi cAMP, 25 μM Forskolin
Method: (§1) Compounds 2 and 3 were evaluated for activity against CB1 [CNR1] and CB2 [CNR2], both as agonists or as antagonists using the PathHunter GPCR Biosensor (Eurofins Discovery X, Fremont CA). For agonist assays, data was normalized to the maximal and minimal response observed in the presence of control ligand and vehicle. For antagonist assays, data was normalized to the maximal and minimal response observed in the presence of EC80 ligand and vehicle. The following EC80 concentrations were used: CNR1 cAMP: 0.0012 μM CP55940; CNR2 cAMP: 0.0048 μM CP55940. For Gi cAMP assays, the following forskolin concentration was used: CNR1 cAMP: 20 μM Forskolin; CNR2 cAMP: 25 μM Forskolin.

[2] = target: T2, CB1 [CNR1] (Homo sapiens, UniProt P21554); assay: PathHunter GPCR Biosensor cAMP assay, CNR1 agonist mode; conditions: Gi cAMP, 20 μM Forskolin
T2 sequence (P21554 whole entry): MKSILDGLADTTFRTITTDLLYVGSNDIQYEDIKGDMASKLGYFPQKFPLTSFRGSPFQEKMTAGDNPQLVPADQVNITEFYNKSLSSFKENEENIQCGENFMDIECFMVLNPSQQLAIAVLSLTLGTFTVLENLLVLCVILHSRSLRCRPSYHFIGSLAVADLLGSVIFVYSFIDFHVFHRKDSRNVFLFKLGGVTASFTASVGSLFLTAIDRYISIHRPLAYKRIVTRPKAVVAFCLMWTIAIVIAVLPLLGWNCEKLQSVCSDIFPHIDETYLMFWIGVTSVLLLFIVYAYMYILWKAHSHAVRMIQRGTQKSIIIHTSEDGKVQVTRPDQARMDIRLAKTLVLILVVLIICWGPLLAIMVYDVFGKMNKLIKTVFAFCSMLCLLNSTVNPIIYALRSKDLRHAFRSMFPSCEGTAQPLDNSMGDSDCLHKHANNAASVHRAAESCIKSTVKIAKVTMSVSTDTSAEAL
Method: as §1

[3] = target: T2, CB1 [CNR1]; assay: PathHunter GPCR Biosensor cAMP assay, CNR1 antagonist mode; conditions: for IC50: Gi cAMP, 20 μM Forskolin, EC80 0.0012 μM CP55940; for CB1 vs CB2 selectivity and mode of action (in words): conclusion from Table 7
Method: as §1

[4] = target: T1, CB2 [CNR2]; assay: PathHunter GPCR Biosensor cAMP assay, CNR2 antagonist mode; conditions: Gi cAMP, 25 μM Forskolin; EC80 0.0048 μM CP55940
Method: as §1

T1 sequence (P34972 whole entry): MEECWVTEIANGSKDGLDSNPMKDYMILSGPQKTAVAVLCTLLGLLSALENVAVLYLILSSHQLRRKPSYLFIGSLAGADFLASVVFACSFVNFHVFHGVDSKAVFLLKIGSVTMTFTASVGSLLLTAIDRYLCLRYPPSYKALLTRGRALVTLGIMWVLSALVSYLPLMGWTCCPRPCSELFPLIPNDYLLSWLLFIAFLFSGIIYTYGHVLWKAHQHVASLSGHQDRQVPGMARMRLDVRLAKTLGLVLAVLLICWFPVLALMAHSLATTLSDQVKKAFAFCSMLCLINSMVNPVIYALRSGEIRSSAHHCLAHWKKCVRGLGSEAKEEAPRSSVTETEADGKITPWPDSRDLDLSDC

CC(C)(NC(=O)N1CC(OC(c2ccc(Cl)cc2)c2ccccc2C(F)(F)F)C1)C(=O)O (stereo not shown) [Compound 3, 2-(3-((4-chlorophenyl)(2-(trifluoromethyl)phenyl)methoxy)azetidine-1-carboxamido)-2-methylpropanoic acid]
EC50 [1]: > 1000 nM | EC50 [2]: > 1000 nM | IC50 [3]: 383 nM | CB1 vs CB2 selectivity and mode of action (in words) [3]: selective CB1 antagonists | IC50 [4]: > 1000 nM

CC(C)(CO)NC(=O)N1CC(OC(c2ccc(Cl)cc2)c2ccccc2C(F)(F)F)C1 (stereo not shown) [Compound 2, 3-((4-chlorophenyl)(2-(trifluoromethyl)phenyl)methoxy)-N-(1-hydroxy-2-methylpropan-2-yl)azetidine-1-carboxamide]
EC50 [1]: > 1000 nM | EC50 [2]: > 1000 nM | IC50 [3]: 45.6 nM | CB1 vs CB2 selectivity and mode of action (in words) [3]: selective CB1 antagonists | IC50 [4]: > 1000 nM
